Several values for one entry are separate records, joined by “and”; a condition that tells them apart may be missing. Identical values can stand only once. Like-named read-outs stand apart in the source and are kept apart here.
Columns and labels:
[1] = system: Lp(a); assay: Lp(a) levels in cynomolgus monkeys; assay type: in vivo, cynomolgus monkey (Macaca fascicularis); parameters: key to Mean_pCFB_vs_Veh / Mean_pCFB_vs_Veh (Lp(a)): % change from pre-dose, treated group compared with vehicle; key to Mean_pCFB / Mean_pCFB (Lp(a)): % change in Lp(a) from before dosing; Lp(a): unit not given here; conditions: for Mean_pCFB_vs_Veh (Lp(a)) / Mean_pCFB (Lp(a)) / Lp(a) / pCFB (Lp(a) pct_chng_from_baseline): cynomolgus monkey; for Mean_pCFB_vs_Veh (Lp(a)): difference vs vehicle; for Mean_pCFB (Lp(a)): group mean; for Lp(a) / pCFB (Lp(a) pct_chng_from_baseline): individual animals
Protocol: Female or male Chinese Macaca fascicularis cynomolgus monkeys (as described in the figure legends) of unspecified ages with body weight ranging from 2.0 kg to 5.0 kg were housed in cages with a standard light cycle (12-h light, 12-h dark) at room temperature (20–26 °C); the relative humidity ranged from 30% to 70%. Monkeys were given fruits, vegetables or dietary enrichment as a form of environmental enrichment, and various cage enrichment devices. Purina Lab diet 5048C was provided BID and individual monkeys were identified by cage card. The monkeys were randomized to treatment groups by body weight and baseline plasma Lp(a) concentration, as determined by a commercially available Randox assay (Randox LP2757), using a BRAT for the study. In an example cynomolgus monkey study in which 39 monkeys were prescreened for baseline Lp(a) levels, the average Lp(a) level was 350 ± 57 µg ml^−1 (range 53–1,667 µg ml^−1). Monkeys were dosed orally with vehicle (purified water) or compounds QD or BID for 14 days, at dose levels and frequencies as previously described for each compound. Plasma samples were collected on days before dosing to establish baseline Lp(a) and after the morning dose during the study. Lp(a) levels were measured by an investigator who was blinded to group allocation using the Randox assay, and were quantified relative to the calibrator series (Randox LP3404). Data were analysed in GraphPad Prism v.9.5.1. The Lp(a) percentage change from before dosing in non-human primates was analysed by repeated measures ANOVA in SAS v.9.4 (SAS). At each time point, the Lp(a) percentage change for each treated group was compared with vehicle by the Bonferroni method.

[2] = Drug concentration in mouse blood after oral dosing; assay type: in vivo; conditions: female, whole blood (dried blood spots), day 5, read-out: Drug concentration, 4-h time point
Protocol: The LPA gene (GenBank accession code NM_005577) encoding the human apo(a) protein with a signal peptide, one KIV type 1, six KIV type 2 repeats, one each of KIV types 3–10, one KV and one protease domain was subcloned into a transgenic vector containing a mouse albumin promoter cassette and a human growth hormone polyadenylation signal. The transgenic mouse line was generated by pronucleus injection of the LPA transgenic vector. Eight individual transgenic founder mice were assessed for germline transmission of LPA by genotyping and assessment of the levels of apo(a) in the plasma. Positive founder mice were crossed with ApoB100 transgenic mice (Taconic model 1004), and the resulting mouse line nomenclature (B6.SJL-Tg(APOB)1102Sgy Tg(Alb-LPA)32Arte) was selected on the basis of the confirmation of germline transmission, the identification of LPA and huApoB100 transgenes and the levels of Lp(a) in the plasma. Mice hemizygous for both transgenes were used for pharmacology studies. The studies were conducted in female Lp(a) double transgenic mice (age around 7–17 months). Mice were housed in cages with a standard light cycle (12-h light, 12-h dark), at room temperature (22 ± 4 °C), with a relative humidity of 30–70%. Mice were identified by numbers on the cage cards. After arrival, mice were fed on a normal diet (Harlan Teklad diet 2014). Mice were randomized to treatment groups (n = 5 per group, unless otherwise noted) by body weight and baseline plasma Lp(a) concentration using a block randomized allocation tool (BRAT) for the study. In an example Lp(a) transgenic mouse study in which 66 mice were prescreened for baseline Lp(a) levels, the average Lp(a) level was 45 ± 1.8 µg ml^−1 (range 20–78 µg ml^−1). Mice were dosed with various compounds in vehicle (10 ml kg^−1, 1% hydroxyethyl cellulose (HEC), 0.25% Tween-80, Antifoam) or with vehicle alone as a control orally BID for five days. Blood samples were collected by tail bleeds at designated times, and Lp(a) levels were determined by ELISA by an investigator who was blinded to group allocation. In brief, lipoprotein particles were captured by a goat anti-Lp(a)-antibody-coated plate (Abcam ab31675, diluted 1:12,500 in HEPES-buffered saline), the plates were washed and samples were detected using an HRP-conjugated goat anti-apoB antibody (Abcam ab27622, diluted 1:3,000). Colorimetric peroxidase substrate 3,3’,5,5’-TMB was added, and the reaction was stopped using 1 N sulfuric acid. Absorbance at 450 nm was read on a Molecular Devices SpectraMax plate reader. Blood samples were collected at four hours after dosing on day 5 of dosing to confirm exposure. Full pharmacokinetic (PK) profiles were not evaluated. Concentrations of compounds were evaluated from dried blood spots through a non-Good Laboratory Practice (GLP) liquid chromatography with tandem mass spectrometry (LC–MS/MS) assay. Data were analysed in GraphPad Prism v.9.5.1

O=C(O)[C@@H](Cc1cccc(CN(Cc2cccc(C[C@H](C(=O)O)[C@H]3CCNC3)c2)Cc2cccc(C[C@H](C(=O)O)[C@H]3CCNC3)c2)c1)[C@H]1CCNC1 [LY3473329]
Mean_pCFB_vs_Veh (Lp(a)) ([1]; 1mpk, D01): 4.27 | Mean_pCFB_vs_Veh (Lp(a)) ([1]; 1mpk, D03): -6.51 | Mean_pCFB_vs_Veh (Lp(a)) ([1]; 1mpk, D05): -6.39 | Mean_pCFB_vs_Veh (Lp(a)) ([1]; 1mpk, D09): -13.72 | Mean_pCFB_vs_Veh (Lp(a)) ([1]; 1mpk, D14): -22.18 | Mean_pCFB_vs_Veh (Lp(a)) ([1]; 10mpk, D01): 3.91 | Mean_pCFB_vs_Veh (Lp(a)) ([1]; 10mpk, D03): -29.92 | Mean_pCFB_vs_Veh (Lp(a)) ([1]; 10mpk, D05): -32.94 | Mean_pCFB_vs_Veh (Lp(a)) ([1]; 10mpk, D09): -36.99 | Mean_pCFB_vs_Veh (Lp(a)) ([1]; 10mpk, D14): -48.11 | Mean_pCFB_vs_Veh (Lp(a)) ([1]; 100mpk, D01): -15.98 | Mean_pCFB_vs_Veh (Lp(a)) ([1]; 100mpk, D03): -38.35 | Mean_pCFB_vs_Veh (Lp(a)) ([1]; 100mpk, D05): -32.35 | Mean_pCFB_vs_Veh (Lp(a)) ([1]; 100mpk, D09): -50.18 | Mean_pCFB_vs_Veh (Lp(a)) ([1]; 100mpk, D14): -61.77 | Mean_pCFB (Lp(a)) ([1]; 1mpk, D01): -0.85 | Mean_pCFB (Lp(a)) ([1]; 1mpk, D03): -12.33 | Mean_pCFB (Lp(a)) ([1]; 1mpk, D05): -14.05 | Mean_pCFB (Lp(a)) ([1]; 1mpk, D09): -21.85 | Mean_pCFB (Lp(a)) ([1]; 1mpk, D14): -34.04 | Mean_pCFB (Lp(a)) ([1]; 10mpk, D01): -1.2 | Mean_pCFB (Lp(a)) ([1]; 10mpk, D03): -35.74 | Mean_pCFB (Lp(a)) ([1]; 10mpk, D05): -40.6 | Mean_pCFB (Lp(a)) ([1]; 10mpk, D09): -45.13 | Mean_pCFB (Lp(a)) ([1]; 10mpk, D14): -59.97 | Mean_pCFB (Lp(a)) ([1]; 100mpk, D01): -21.09 | Mean_pCFB (Lp(a)) ([1]; 100mpk, D03): -44.17 | Mean_pCFB (Lp(a)) ([1]; 100mpk, D05): -40.01 | Mean_pCFB (Lp(a)) ([1]; 100mpk, D09): -58.32 | Mean_pCFB (Lp(a)) ([1]; 100mpk, D14): -73.62 | Lp(a) ([1]; 1mpk group, Day 1, Pre dose (baseline), 1 mg/kg): 115.019 and 15.737 and 53.63 and 67.735 and 63.938 | Lp(a) ([1]; 1mpk, Day 1, 4hr, 1 mg/kg): 97.491 and 117.597 and 16.395 and 53.808 and 66.137 and 65.184 | pCFB (Lp(a) pct_chng_from_baseline) ([1]; 1mpk, Day 1, 1 mg/kg): -11.4161 and 2.241 and 4.181 and 0.3319 and -2.359 and 1.949 | Lp(a) ([1]; 1mpk, Day 3, 4hr, 1 mg/kg): 91.721 and 112.368 and 11.704 and 47.474 and 63.489 and 56.499 | pCFB (Lp(a) pct_chng_from_baseline) ([1]; 1mpk, Day 3, 1 mg/kg): -16.6589 and -2.305 and -25.6275 and -11.4787 and -6.269 and -11.6347 | Lp(a) ([1]; 1mpk, Day 5, 4hr, 1 mg/kg): 85.692 and 109.155 and 11.192 and 45.131 and 70.165 and 53.752 | pCFB (Lp(a) pct_chng_from_baseline) ([1]; 1mpk, Day 5, 1 mg/kg): -22.1371 and -5.098 and -28.881 and -15.8475 and 3.588 and -15.9311 | Lp(a) ([1]; 1mpk, Day 9, 4hr, 1 mg/kg): 81.717 and 123.954 and 9.293 and 31.114 and 64.385 | pCFB (Lp(a) pct_chng_from_baseline) ([1]; 1mpk, Day 9, 1 mg/kg): -25.7489 and 7.768 and -40.9481 and -41.984 and -4.946 and -25.2635 | pCFB (Lp(a) pct_chng_from_baseline) ([1]; 1mpk, Day 14, 1 mg/kg): -43.1939 and -2.975 and -53.0914 and -46.914 and -15.7924 and -42.2472 | Lp(a) ([1]; 10mpk group, Day 1, Pre dose (baseline), 10 mg/kg): 63.144 and 63.676 and 112.151 and 49.481 and 65.725 and 30.09 | pCFB (Lp(a) pct_chng_from_baseline) ([1]; 10mpk, Day 1, 10 mg/kg): -0.54 and 5.215 and -3.008 and -7.112 and -1.928 and 0.1728 | pCFB (Lp(a) pct_chng_from_baseline) ([1]; 10mpk, Day 3, 10 mg/kg): -40.1463 and -31.9398 and -31.5575 and -28.9606 and -53.8653 and -27.9495 | Lp(a) ([1]; 10mpk, Day 5, 4hr, 10 mg/kg): 69.663 and 26.971 and 31.738 and 21.72 | pCFB (Lp(a) pct_chng_from_baseline) ([1]; 10mpk, Day 5, 10 mg/kg): -39.4923 and -41.2165 and -37.8846 and -45.4922 and -51.7109 and -27.8166 | Lp(a) ([1]; 10mpk, Day 9, 4hr, 10 mg/kg): 37.879 and 46.471 and 59.699 and 19.275 and 28.08 and 18.466 | pCFB (Lp(a) pct_chng_from_baseline) ([1]; 10mpk, Day 9, 10 mg/kg): -40.0117 and -27.0196 and -46.7691 and -61.0457 and -57.2765 and -38.6308 | Lp(a) ([1]; 10mpk, Day 14, 4hr, 10 mg/kg): 27.525 and 31.412 and 53.912 and 14.404 and 16.367 and 13.601 | pCFB (Lp(a) pct_chng_from_baseline) ([1]; 10mpk, Day 14, 10 mg/kg): -56.4092 and -50.669 and -51.9291 and -70.8898 and -75.0978 and -54.7989 | Lp(a) ([1]; 100mpk group, Day 1, Pre dose (baseline), 100 mg/kg): 63.503 and 134.003 and 31.483 and 50.567 and 61.834 | Lp(a) ([1]; 100mpk, Day 1, 4hr, 100 mg/kg): 57.552 and 102.207 and 18.95 and 36.698 and 61.471 | pCFB (Lp(a) pct_chng_from_baseline) ([1]; 100mpk, Day 1, 100 mg/kg): -39.8088 and -27.427 and -0.5871 and -9.371 and -23.7278 | Lp(a) ([1]; 100mpk, Day 3, 4hr, 100 mg/kg): 37.977 and 67.885 and 16.507 and 23.074 and 46.465 | pCFB (Lp(a) pct_chng_from_baseline) ([1]; 100mpk, Day 3, 100 mg/kg): -47.5685 and -54.3695 and -24.8553 and -40.1965 and -49.3407 | Lp(a) ([1]; 100mpk, Day 5, 4hr, 100 mg/kg): 41.338 and 90.201 and 17.421 and 23.304 and 43.695 | pCFB (Lp(a) pct_chng_from_baseline) ([1]; 100mpk, Day 5, 100 mg/kg): -32.6873 and -44.6654 and -53.9146 and -29.335 and -34.9039 | Lp(a) ([1]; 100mpk, Day 9, 4hr, 100 mg/kg): 23.771 and 69.54 and 11.012 and 15.587 and 35.753 | pCFB (Lp(a) pct_chng_from_baseline) ([1]; 100mpk, Day 9, 100 mg/kg): -48.1056 and -65.0224 and -69.1755 and -42.1791 and -62.5671 | Lp(a) ([1]; 100mpk, Day 14, 4hr, 100 mg/kg): 22.568 and 43.526 and 4.973 and 14.913 and 14.296 | pCFB (Lp(a) pct_chng_from_baseline) ([1]; 100mpk, Day 14, 100 mg/kg): -67.5186 and -84.2042 and -70.5084 and -76.88 and -64.4615 | reduction of median Lp(a) levels compared with baseline ([1]; cynomolgus monkeys, 100 mg kg^−1 QD): up to 71% | concentration at 4 h ([2]; oral 1 mg/kg): 28.4 ± 11 nM | concentration at 4 h ([2]; oral 3 mg/kg): 97.3 ± 39.1 nM | concentration at 4 h ([2]; oral 10 mg/kg): 215 ± 34.6 nM | concentration at 4 h ([2]; oral 30 mg/kg): 264 ± 39.3 nM

— paper PMC11111404, “Discovery of potent small-molecule inhibitors of lipoprotein(a) formation” (Nature, 2024)
